Among the data in publication PMC4858680, “A platinum-based hybrid drug design approach to circumvent acquired resistance to molecular targeted tyrosine kinase inhibitors” (Scientific Reports, 2016) are remaining activity and Percent control values, retold here.

The target in one assay is SYK (Homo sapiens, UniProt P43405). The assay can be described thus: biochemical. The settings on record: read-out: Percent control.
The next assay deals with T1, FLT3 (Homo sapiens, UniProt P36888).
T1 sequence (P36888 27-993): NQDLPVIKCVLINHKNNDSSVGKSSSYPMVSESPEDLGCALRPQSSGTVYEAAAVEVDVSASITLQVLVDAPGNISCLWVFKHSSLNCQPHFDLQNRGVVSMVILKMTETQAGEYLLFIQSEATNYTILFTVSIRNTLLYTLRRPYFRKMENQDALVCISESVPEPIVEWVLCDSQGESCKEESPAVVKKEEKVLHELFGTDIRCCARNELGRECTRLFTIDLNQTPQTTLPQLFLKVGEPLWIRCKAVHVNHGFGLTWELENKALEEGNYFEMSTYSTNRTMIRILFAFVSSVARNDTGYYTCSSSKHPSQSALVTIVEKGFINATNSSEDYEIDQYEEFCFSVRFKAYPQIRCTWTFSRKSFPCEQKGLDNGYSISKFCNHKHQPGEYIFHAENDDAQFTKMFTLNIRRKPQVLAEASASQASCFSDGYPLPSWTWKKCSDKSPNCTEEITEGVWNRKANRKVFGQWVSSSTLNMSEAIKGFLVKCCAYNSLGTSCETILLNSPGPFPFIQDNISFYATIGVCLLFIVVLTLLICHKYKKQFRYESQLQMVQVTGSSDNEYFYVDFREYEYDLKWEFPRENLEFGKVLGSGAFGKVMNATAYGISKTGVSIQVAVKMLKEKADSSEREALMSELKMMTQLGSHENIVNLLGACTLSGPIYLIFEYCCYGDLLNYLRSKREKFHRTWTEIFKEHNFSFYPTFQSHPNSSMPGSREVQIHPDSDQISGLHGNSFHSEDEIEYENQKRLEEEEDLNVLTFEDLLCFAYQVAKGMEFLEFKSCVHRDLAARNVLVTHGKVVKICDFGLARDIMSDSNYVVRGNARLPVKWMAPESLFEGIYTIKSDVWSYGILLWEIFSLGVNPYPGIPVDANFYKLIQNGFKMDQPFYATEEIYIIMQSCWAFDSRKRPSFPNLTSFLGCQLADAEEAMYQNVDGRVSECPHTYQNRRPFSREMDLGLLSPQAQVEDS
The assay can be described thus: biochemical. The settings on record: read-out: Percent control.

For the next assay, the target named is FYN (Homo sapiens, UniProt P06241). The experiment in a line: biochemical. The settings on record: read-out: Percent control.
The target of the next assay is ROS1 (Homo sapiens, UniProt P08922). The assay can be described thus: biochemical. The settings on record: read-out: Percent control.
Another assay deals with T2, EPHB1 (Homo sapiens, UniProt P54762).
T2 sequence (P54762 18-984): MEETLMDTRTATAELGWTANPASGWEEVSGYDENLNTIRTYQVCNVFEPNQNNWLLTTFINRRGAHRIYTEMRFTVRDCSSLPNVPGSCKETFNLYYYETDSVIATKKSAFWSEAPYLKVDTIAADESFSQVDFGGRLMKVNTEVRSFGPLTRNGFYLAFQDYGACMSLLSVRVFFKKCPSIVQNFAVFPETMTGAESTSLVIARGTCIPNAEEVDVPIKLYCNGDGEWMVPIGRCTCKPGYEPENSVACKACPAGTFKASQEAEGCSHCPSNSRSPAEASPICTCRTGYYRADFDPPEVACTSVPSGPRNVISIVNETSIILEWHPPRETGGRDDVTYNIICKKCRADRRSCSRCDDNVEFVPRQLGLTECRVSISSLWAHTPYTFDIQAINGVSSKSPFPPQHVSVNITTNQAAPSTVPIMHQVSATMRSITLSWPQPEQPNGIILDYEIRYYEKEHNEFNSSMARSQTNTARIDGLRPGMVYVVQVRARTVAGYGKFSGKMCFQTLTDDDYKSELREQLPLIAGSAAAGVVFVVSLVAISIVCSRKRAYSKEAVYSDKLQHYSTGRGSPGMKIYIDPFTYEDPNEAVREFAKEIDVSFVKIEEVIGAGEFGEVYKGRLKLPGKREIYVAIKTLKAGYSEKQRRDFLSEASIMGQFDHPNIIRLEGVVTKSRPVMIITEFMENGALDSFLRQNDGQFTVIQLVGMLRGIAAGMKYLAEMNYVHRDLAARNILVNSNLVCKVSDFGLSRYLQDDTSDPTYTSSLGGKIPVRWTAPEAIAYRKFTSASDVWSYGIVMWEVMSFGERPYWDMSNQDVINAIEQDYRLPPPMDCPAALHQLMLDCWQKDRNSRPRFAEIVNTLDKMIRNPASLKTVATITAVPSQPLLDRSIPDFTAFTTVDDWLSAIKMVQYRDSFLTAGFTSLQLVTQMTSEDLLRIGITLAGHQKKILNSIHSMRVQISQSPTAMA
The experiment in a line: biochemical. The settings on record: read-out: Percent control.

The next assay concerns the target FLT4 (Homo sapiens, UniProt P35916). The experiment in a line: biochemical. The settings on record: read-out: Percent control.
In a further assay the target is PDGFRB (Homo sapiens, UniProt P09619). The settings on record: 10 μM.
PDGFRB, sequence (P09619 33-1106): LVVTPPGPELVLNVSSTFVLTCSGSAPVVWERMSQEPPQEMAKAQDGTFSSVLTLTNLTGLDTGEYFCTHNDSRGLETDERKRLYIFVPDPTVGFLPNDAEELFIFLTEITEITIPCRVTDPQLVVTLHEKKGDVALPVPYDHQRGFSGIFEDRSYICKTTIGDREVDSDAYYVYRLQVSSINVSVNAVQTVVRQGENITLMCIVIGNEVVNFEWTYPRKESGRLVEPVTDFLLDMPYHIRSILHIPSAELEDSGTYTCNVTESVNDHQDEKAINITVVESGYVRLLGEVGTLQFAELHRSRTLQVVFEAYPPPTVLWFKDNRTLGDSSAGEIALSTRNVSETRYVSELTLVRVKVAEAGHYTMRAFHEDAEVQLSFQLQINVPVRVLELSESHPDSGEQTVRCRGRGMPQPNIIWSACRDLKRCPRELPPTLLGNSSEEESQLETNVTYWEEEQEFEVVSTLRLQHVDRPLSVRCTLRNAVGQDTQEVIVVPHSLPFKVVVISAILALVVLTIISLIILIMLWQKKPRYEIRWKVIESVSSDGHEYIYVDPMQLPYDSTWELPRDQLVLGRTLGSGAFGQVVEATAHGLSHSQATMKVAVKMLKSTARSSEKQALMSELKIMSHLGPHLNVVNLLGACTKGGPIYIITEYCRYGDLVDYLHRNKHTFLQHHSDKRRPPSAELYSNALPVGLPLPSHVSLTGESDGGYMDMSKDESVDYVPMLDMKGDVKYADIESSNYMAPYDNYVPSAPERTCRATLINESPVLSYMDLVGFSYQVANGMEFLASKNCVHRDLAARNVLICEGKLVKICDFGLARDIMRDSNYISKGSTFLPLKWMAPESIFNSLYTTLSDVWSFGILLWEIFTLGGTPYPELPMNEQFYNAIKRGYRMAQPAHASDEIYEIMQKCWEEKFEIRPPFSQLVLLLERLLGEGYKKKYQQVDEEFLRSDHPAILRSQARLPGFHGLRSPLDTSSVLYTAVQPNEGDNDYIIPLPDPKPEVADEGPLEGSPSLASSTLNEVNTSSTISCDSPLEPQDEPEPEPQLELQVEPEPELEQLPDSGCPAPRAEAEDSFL

ROS1, sequence (P08922 28-2347): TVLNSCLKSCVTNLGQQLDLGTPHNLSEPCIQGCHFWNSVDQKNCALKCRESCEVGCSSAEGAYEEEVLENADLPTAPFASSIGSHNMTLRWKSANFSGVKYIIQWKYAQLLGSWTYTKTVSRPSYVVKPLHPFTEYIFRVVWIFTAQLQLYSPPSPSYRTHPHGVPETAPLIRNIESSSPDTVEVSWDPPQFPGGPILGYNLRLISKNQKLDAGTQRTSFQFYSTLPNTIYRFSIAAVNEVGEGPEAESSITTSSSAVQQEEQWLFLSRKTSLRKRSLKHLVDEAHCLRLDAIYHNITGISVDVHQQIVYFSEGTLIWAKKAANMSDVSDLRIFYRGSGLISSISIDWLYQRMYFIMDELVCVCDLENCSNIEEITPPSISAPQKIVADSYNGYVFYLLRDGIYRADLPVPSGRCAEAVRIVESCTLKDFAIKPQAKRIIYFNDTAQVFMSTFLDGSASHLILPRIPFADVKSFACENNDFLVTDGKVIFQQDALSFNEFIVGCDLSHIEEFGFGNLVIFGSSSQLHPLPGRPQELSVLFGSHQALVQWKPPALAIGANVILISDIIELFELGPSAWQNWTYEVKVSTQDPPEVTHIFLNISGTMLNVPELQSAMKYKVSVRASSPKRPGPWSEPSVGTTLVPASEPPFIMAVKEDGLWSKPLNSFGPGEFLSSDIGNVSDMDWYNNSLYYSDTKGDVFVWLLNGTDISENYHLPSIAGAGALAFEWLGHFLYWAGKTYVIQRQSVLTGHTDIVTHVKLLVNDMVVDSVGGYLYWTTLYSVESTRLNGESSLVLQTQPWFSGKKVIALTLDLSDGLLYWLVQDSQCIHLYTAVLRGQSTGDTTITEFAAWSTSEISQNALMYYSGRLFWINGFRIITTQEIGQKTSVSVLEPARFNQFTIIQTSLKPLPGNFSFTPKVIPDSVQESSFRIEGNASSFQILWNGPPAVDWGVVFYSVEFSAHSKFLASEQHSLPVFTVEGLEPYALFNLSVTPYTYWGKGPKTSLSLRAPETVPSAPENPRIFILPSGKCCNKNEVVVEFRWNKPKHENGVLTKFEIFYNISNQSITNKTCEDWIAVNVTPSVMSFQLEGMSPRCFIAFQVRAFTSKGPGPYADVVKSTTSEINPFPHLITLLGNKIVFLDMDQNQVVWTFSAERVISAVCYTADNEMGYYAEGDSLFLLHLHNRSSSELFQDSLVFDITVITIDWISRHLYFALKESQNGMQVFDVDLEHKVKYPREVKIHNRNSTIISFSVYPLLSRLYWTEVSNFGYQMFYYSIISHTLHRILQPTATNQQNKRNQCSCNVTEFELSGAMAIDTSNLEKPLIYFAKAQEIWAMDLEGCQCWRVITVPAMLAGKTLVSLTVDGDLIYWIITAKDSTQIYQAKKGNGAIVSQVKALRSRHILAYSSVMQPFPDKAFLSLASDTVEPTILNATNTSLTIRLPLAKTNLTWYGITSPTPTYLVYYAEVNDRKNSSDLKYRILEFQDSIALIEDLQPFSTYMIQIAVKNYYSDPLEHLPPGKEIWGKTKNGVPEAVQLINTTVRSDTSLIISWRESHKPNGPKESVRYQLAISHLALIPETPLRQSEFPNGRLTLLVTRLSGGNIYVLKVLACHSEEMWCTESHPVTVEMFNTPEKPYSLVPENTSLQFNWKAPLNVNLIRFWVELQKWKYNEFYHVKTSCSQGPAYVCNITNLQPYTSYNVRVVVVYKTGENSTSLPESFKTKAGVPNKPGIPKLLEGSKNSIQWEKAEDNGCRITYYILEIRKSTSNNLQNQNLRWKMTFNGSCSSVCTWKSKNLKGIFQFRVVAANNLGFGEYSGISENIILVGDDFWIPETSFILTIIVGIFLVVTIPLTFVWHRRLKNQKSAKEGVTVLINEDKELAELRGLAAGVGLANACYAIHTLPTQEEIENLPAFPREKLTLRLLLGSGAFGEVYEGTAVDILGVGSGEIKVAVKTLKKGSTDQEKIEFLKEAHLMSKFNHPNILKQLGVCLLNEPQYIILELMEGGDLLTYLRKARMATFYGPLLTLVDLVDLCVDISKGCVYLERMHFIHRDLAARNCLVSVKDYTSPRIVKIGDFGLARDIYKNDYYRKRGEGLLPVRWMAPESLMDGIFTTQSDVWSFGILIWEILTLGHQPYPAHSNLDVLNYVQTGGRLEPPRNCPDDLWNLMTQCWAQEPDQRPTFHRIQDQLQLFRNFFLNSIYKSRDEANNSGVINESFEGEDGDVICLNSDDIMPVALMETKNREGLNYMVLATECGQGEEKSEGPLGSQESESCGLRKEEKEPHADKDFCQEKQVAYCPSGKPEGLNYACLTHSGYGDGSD
FLT4, sequence (P35916 25-1363): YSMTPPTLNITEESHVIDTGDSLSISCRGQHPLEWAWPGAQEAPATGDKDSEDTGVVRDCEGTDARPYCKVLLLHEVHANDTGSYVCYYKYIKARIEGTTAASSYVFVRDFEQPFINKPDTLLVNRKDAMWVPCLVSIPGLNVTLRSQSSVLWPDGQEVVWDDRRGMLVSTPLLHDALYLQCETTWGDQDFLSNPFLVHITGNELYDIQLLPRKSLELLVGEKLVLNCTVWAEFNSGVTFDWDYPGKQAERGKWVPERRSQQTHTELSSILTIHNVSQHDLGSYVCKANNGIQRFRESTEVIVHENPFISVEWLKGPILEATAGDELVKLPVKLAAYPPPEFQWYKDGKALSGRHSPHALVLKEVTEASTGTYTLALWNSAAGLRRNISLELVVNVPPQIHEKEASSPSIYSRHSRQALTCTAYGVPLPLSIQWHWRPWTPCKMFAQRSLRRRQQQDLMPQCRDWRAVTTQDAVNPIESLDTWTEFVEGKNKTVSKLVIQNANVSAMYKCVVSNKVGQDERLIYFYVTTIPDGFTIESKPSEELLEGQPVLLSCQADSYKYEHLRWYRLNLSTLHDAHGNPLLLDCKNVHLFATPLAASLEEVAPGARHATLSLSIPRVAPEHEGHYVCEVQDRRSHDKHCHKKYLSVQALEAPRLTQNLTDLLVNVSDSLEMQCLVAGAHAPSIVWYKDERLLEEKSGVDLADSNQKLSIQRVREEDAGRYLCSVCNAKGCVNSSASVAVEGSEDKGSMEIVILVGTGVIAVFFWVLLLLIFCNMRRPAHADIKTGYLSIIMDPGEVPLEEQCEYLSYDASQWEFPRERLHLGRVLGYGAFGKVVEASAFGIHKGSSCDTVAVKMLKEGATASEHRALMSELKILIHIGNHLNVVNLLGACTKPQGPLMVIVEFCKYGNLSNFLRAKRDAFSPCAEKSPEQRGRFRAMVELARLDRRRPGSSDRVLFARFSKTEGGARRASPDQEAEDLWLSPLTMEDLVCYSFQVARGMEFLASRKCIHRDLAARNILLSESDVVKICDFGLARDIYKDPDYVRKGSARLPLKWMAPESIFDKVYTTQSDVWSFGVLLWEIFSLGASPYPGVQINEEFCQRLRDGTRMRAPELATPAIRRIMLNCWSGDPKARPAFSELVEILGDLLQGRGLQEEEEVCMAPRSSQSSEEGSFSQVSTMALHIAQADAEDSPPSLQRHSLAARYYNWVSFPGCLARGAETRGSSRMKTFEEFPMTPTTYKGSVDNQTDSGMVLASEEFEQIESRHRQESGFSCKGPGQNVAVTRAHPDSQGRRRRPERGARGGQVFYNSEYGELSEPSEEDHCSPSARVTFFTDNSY

For the compound `COc1cc2c(Nc3ccc(Br)cc3F)ncnc2cc1OCC1CCN(C)CC1` [Vandetanib, reference compound], the remaining activity at 10 µM was 100% on SYK; 7.8% at FLT3; 3.5% on FYN; 100% on ROS1; 2.8% on EPHB1; 9.9% at FLT4.
`Cc1ccc(NC(=O)c2ccc(CN3CCN(C)CC3)cc2)cc1Nc1nccc(-c2cccnc2)[n+]1[Pt-2]1([Cl])[NH2+]C2CCCCC2[NH2+]1` (centres unmarked) [1b, oxaliplatin-imatinib] displayed a Percent control on PDGFRB of 0.1%.
Consider `C#Cc1cccc(Nc2ncnc3cc(OCCOC)c(OCCOC)cc23)c1` [Erlotinib], for which the remaining activity at 10 µM on SYK worked out at 100%; at FLT3, 10.7%; on FYN it was 100%; at ROS1, 100%; at EPHB1 it was 9.9%; at FLT4, 17.4%.
Take `C#Cc1cccc(Nc2c3cc(OCCOC)c(OCCOC)cc3nc[n+]2[Pt@SP2-2]([NH3+])([NH3+])[Cl])c1` [2a, cisplatin-erlotinib]: at PDGFRB, the Percent control is given as 85%.
